Source: ChEMBL document CHEMBL1201862, “PubChem BioAssay data set” (2004)
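Method: 48-hour compound exposure of cells in 96-well plates, five concentrations, linear interpolation of endpoints. GI50 = concentration required for 50% inhibition of growth.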 Active and inactive are the calls of the source. No stated cut-off is given here; in the data, active = GI50 up to about 1.1 µM and inactive = higher.

Assays:
Assay in all cases: inhibition of tumour cell growth, NCI panel, 48 h
786-0 = tested on: 786-0
A498 = tested on: A498
ACHN = tested on: ACHN
BT-549 = tested on: BT-549
CAKI-1 = tested on: CAKI-1
CCRF-CEM = tested on: CCRF-CEM
COLO 205 = tested on: COLO 205
DU-145 = tested on: DU-145
EKVX = tested on: EKVX
HCC 2998 = tested on: HCC 2998
HCT-116 = tested on: HCT-116
HCT-15 = tested on: HCT-15
HL-60 = tested on: HL-60
HOP-62 = tested on: HOP-62
HOP-92 = tested on: HOP-92
HT-29 = tested on: HT-29
Hs-578T = tested on: Hs-578T
IGROV-1 = tested on: IGROV-1
K562 = tested on: K562
KM12 = tested on: KM12
LOX IMVI = tested on: LOX IMVI
M14 = tested on: M14
MCF7 = tested on: MCF7
MDA-MB-231 = tested on: MDA-MB-231
MDA-MB-435 = tested on: MDA-MB-435
MOLT-4 = tested on: MOLT-4
NCI-H226 = tested on: NCI-H226
NCI-H23 = tested on: NCI-H23
NCI-H460 = tested on: NCI-H460
NCI/ADR-RES = tested on: NCI/ADR-RES
OVCAR-4 = tested on: OVCAR-4
OVCAR-8 = tested on: OVCAR-8
PC-3 = tested on: PC-3
RPMI-8226 = tested on: RPMI-8226
RXF 393 = tested on: RXF 393
SF-268 = tested on: SF-268
SF-295 = tested on: SF-295
SF-539 = tested on: SF-539
SK-MEL-28 = tested on: SK-MEL-28
SK-MEL-2 = tested on: SK-MEL-2
SK-MEL-5 = tested on: SK-MEL-5
SK-OV-3 = tested on: SK-OV-3
SNB-19 = tested on: SNB-19
SNB-75 = tested on: SNB-75
SR = tested on: SR
SW-620 = tested on: SW-620
T47D = tested on: T47D
TK-10 = tested on: TK-10
U-251 = tested on: U-251
UACC-257 = tested on: UACC-257
UACC-62 = tested on: UACC-62
UO-31 = tested on: UO-31
A549 = tested on: A549
MDA-N = tested on: MDA-N
Malme-3M = tested on: Malme-3M
NCI-H522 = tested on: NCI-H522
OVCAR-3 = tested on: OVCAR-3
OVCAR-5 = tested on: OVCAR-5
SN12C = tested on: SN12C

COc1ccc(NC(S)=Nc2cccc(C)n2)cc1 was tested, and the GI50 (786-0) was 54 µM (inactive), the GI50 (A498) was > 100 µM (inactive) and the GI50 (ACHN) was > 100 µM (inactive). For the same compound, the GI50 (BT-549) was > 100 µM (inactive), the GI50 (CAKI-1) was 37.9 µM (inactive) and the GI50 (CCRF-CEM) was > 100 µM (inactive). For the same compound, the GI50 (COLO 205) was > 100 µM (inactive), the GI50 (DU-145) was > 100 µM (inactive) and the GI50 (EKVX) was > 100 µM (inactive). The GI50 (HCC 2998) was > 100 µM (inactive), the GI50 (HCT-116) was > 100 µM (inactive) and the GI50 (HCT-15) was 78.2 µM. The GI50 (HL-60) was > 100 µM (inactive), the GI50 (HOP-62) was 25.6 µM (inactive) and the GI50 (HOP-92) was 39.5 µM (inactive). The GI50 (HT-29) was > 100 µM (inactive), the GI50 (Hs-578T) was 58.2 µM (inactive) and the GI50 (IGROV-1) was 70.6 µM (inactive). For the same compound, the GI50 (K562) was 75.3 µM (inactive), the GI50 (KM12) was > 100 µM (inactive) and the GI50 (LOX IMVI) was > 100 µM (inactive). The GI50 (M14) was > 100 µM (inactive), the GI50 (MCF7) was > 100 µM (inactive) and the GI50 (MDA-MB-231) was > 100 µM (inactive). For the same compound, the GI50 (MDA-MB-435) was > 100 µM (inactive), the GI50 (MOLT-4) was > 100 µM (inactive) and the GI50 (NCI-H226) was > 100 µM (inactive). For the same compound, the GI50 (NCI-H23) was 84.5 µM (inactive), the GI50 (NCI-H460) was > 100 µM (inactive) and the GI50 (NCI/ADR-RES) was > 100 µM (inactive). For the same compound, the GI50 (OVCAR-4) was > 100 µM (inactive), the GI50 (OVCAR-8) was 96.8 µM (inactive) and the GI50 (PC-3) was > 100 µM (inactive). The GI50 (RPMI-8226) was > 100 µM (inactive), the GI50 (RXF 393) was 28.4 µM (inactive) and the GI50 (SF-268) was 55.1 µM (inactive). For the same compound, the GI50 (SF-295) was 33.3 µM (inactive), the GI50 (SF-539) was 74.6 µM (inactive) and the GI50 (SK-MEL-28) was > 100 µM (inactive). For the same compound, the GI50 (SK-MEL-2) was > 100 µM (inactive), the GI50 (SK-MEL-5) was > 100 µM (inactive) and the GI50 (SK-OV-3) was > 100 µM (inactive). For the same compound, the GI50 (SNB-19) was > 100 µM (inactive), the GI50 (SNB-75) was 69.5 µM (inactive) and the GI50 (SR) was > 100 µM (inactive). The GI50 (SW-620) was > 100 µM (inactive), the GI50 (T47D) was > 100 µM (inactive) and the GI50 (TK-10) was > 100 µM (inactive). For the same compound, the GI50 (U-251) was 33.5 µM (inactive), the GI50 (UACC-257) was > 100 µM (inactive) and the GI50 (UACC-62) was > 100 µM (inactive). The GI50 (UO-31) was > 100 µM (inactive).

C=C1CCc2ccccc2C1=O was tested, and the GI50 (786-0) was > 100 µM (inactive), the GI50 (A498) was > 100 µM (inactive) and the GI50 (A549) was > 100 µM (inactive). For the same compound, the GI50 (ACHN) was > 100 µM (inactive), the GI50 (BT-549) was > 100 µM (inactive) and the GI50 (CAKI-1) was > 100 µM (inactive). The GI50 (CCRF-CEM) was 45.8 µM (inactive), the GI50 (COLO 205) was > 100 µM (inactive) and the GI50 (DU-145) was > 100 µM (inactive). For the same compound, the GI50 (EKVX) was > 100 µM (inactive), the GI50 (HCC 2998) was > 100 µM (inactive) and the GI50 (HCT-116) was > 100 µM (inactive). For the same compound, the GI50 (HCT-15) was over 100 µM, the GI50 (HL-60) was > 100 µM (inactive) and the GI50 (HOP-62) was > 100 µM (inactive). The GI50 (HOP-92) was > 100 µM (inactive), the GI50 (HT-29) was 47.2 µM (inactive) and the GI50 (Hs-578T) was > 100 µM (inactive). For the same compound, the GI50 (IGROV-1) was > 100 µM (inactive), the GI50 (K562) was 37.9 µM (inactive) and the GI50 (KM12) was > 100 µM (inactive). The GI50 (M14) was > 100 µM (inactive), the GI50 (MCF7) was 56 µM (inactive) and the GI50 (MDA-MB-231) was > 100 µM (inactive). The GI50 (MDA-MB-435) was 29.3 µM (inactive), the GI50 (MDA-N) was 43.1 µM (inactive) and the GI50 (MOLT-4) was 64.7 µM (inactive). For the same compound, the GI50 (Malme-3M) was > 100 µM (inactive), the GI50 (NCI-H226) was > 100 µM (inactive) and the GI50 (NCI-H23) was > 100 µM (inactive). For the same compound, the GI50 (NCI-H460) was > 100 µM (inactive), the GI50 (NCI-H522) was > 100 µM (inactive) and the GI50 (NCI/ADR-RES) was > 100 µM (inactive). For the same compound, the GI50 (OVCAR-3) was > 100 µM (inactive), the GI50 (OVCAR-4) was > 100 µM (inactive) and the GI50 (OVCAR-5) was > 100 µM (inactive). The GI50 (OVCAR-8) was > 100 µM (inactive), the GI50 (PC-3) was > 100 µM (inactive) and the GI50 (RPMI-8226) was > 100 µM (inactive). For the same compound, the GI50 (RXF 393) was > 100 µM (inactive), the GI50 (SF-268) was > 100 µM (inactive) and the GI50 (SF-295) was 51.3 µM (inactive). For the same compound, the GI50 (SF-539) was > 100 µM (inactive), the GI50 (SK-MEL-2) was > 100 µM (inactive) and the GI50 (SK-MEL-5) was > 100 µM (inactive). The GI50 (SK-OV-3) was > 100 µM (inactive), the GI50 (SN12C) was > 100 µM (inactive) and the GI50 (SNB-19) was > 100 µM (inactive). The GI50 (SNB-75) was > 100 µM (inactive), the GI50 (SR) was 19.2 µM (inactive) and the GI50 (SW-620) was > 100 µM (inactive). For the same compound, the GI50 (TK-10) was > 100 µM (inactive), the GI50 (U-251) was > 100 µM (inactive) and the GI50 (UACC-257) was > 100 µM (inactive). The GI50 (UACC-62) was > 100 µM (inactive) and the GI50 (UO-31) was > 100 µM (inactive).

Cc1cc2c(cc1Cl)S(=O)(=O)OC(c1ccc([N+](=O)[O-])cc1)=N2 was tested, and the GI50 (786-0) was > 100 µM (inactive), the GI50 (A498) was > 100 µM (inactive) and the GI50 (A549) was > 100 µM (inactive). For the same compound, the GI50 (ACHN) was > 100 µM (inactive), the GI50 (BT-549) was > 100 µM (inactive) and the GI50 (CAKI-1) was > 100 µM (inactive). For the same compound, the GI50 (CCRF-CEM) was > 100 µM (inactive), the GI50 (COLO 205) was > 100 µM (inactive) and the GI50 (DU-145) was > 100 µM (inactive). For the same compound, the GI50 (EKVX) was > 100 µM (inactive), the GI50 (HCC 2998) was > 100 µM (inactive) and the GI50 (HCT-116) was > 100 µM (inactive). The GI50 (HCT-15) was over 100 µM, the GI50 (HL-60) was > 100 µM (inactive) and the GI50 (HOP-62) was > 100 µM (inactive). For the same compound, the GI50 (HOP-92) was > 100 µM (inactive), the GI50 (HT-29) was > 100 µM (inactive) and the GI50 (Hs-578T) was > 100 µM (inactive). For the same compound, the GI50 (IGROV-1) was > 100 µM (inactive), the GI50 (K562) was 91 µM (inactive) and the GI50 (KM12) was > 100 µM (inactive). For the same compound, the GI50 (LOX IMVI) was > 100 µM (inactive), the GI50 (M14) was > 100 µM (inactive) and the GI50 (MCF7) was > 100 µM (inactive). The GI50 (MDA-MB-231) was > 100 µM (inactive), the GI50 (MDA-MB-435) was > 100 µM (inactive) and the GI50 (MOLT-4) was > 100 µM (inactive). The GI50 (Malme-3M) was > 100 µM (inactive), the GI50 (NCI-H226) was > 100 µM (inactive) and the GI50 (NCI-H460) was > 100 µM (inactive). For the same compound, the GI50 (NCI-H522) was > 100 µM (inactive), the GI50 (NCI/ADR-RES) was > 100 µM (inactive) and the GI50 (OVCAR-3) was > 100 µM (inactive). The GI50 (OVCAR-4) was > 100 µM (inactive), the GI50 (OVCAR-8) was > 100 µM (inactive) and the GI50 (PC-3) was > 100 µM (inactive). The GI50 (RPMI-8226) was > 100 µM (inactive), the GI50 (RXF 393) was > 100 µM (inactive) and the GI50 (SF-268) was > 100 µM (inactive). The GI50 (SF-295) was > 100 µM (inactive), the GI50 (SF-539) was > 100 µM (inactive) and the GI50 (SK-MEL-28) was > 100 µM (inactive). For the same compound, the GI50 (SK-MEL-5) was > 100 µM (inactive), the GI50 (SK-OV-3) was > 100 µM (inactive) and the GI50 (SN12C) was > 100 µM (inactive). For the same compound, the GI50 (SNB-19) was > 100 µM (inactive), the GI50 (SNB-75) was 44.4 µM (inactive) and the GI50 (SR) was > 100 µM (inactive). The GI50 (SW-620) was > 100 µM (inactive), the GI50 (T47D) was > 100 µM (inactive) and the GI50 (TK-10) was > 100 µM (inactive). The GI50 (U-251) was > 100 µM (inactive), the GI50 (UACC-257) was > 100 µM (inactive) and the GI50 (UACC-62) was > 100 µM (inactive). For the same compound, the GI50 (UO-31) was > 100 µM (inactive).
